# Data as given in patent US20220257597A1, “Methods of Administering Elagolix” (AbbVie Inc., priority 2021, published 2022).
# Biological target: T1, OATP1B1 transporter protein (Homo sapiens, UniProt Q9Y6L6, V174A)
# T1 construct: Hepatic uptake of elagolix involves the OATP1B1 transporter protein; from tissue; host or cells: liver of patients (in vivo)
# T1 sequence (Q9Y6L6 1-691 V174A): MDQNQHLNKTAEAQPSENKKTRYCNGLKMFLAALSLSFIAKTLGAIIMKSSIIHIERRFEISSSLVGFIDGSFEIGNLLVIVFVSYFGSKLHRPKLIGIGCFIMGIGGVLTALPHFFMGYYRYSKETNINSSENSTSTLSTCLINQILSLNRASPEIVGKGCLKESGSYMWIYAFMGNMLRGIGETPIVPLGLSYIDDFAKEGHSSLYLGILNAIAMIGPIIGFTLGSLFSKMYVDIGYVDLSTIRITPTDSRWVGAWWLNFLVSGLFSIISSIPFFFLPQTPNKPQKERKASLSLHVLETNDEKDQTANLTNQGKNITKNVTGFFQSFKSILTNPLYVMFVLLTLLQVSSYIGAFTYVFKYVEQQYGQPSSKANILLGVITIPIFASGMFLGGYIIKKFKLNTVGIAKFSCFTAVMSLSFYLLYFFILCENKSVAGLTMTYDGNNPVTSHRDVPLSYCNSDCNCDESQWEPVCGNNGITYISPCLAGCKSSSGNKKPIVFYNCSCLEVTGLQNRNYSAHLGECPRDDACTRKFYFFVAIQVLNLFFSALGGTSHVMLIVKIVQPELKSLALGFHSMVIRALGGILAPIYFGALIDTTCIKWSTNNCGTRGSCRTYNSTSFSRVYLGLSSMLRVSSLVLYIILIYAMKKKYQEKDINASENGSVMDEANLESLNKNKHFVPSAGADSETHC
# Assay: Pharmacogenomics: elagolix plasma concentrations by SLCO1B1 521 genotype
# Assay type: in vivo
# Details: women with two reduced function alleles
# From the text: Hepatic uptake of elagolix involves the OATP1B1 transporter protein. Higher plasma concentrations of elagolix have been observed in patients who have two reduced function alleles of the gene that encodes OATP1B1 (SLCO1B1 521T>C) (these patients are likely to have reduced hepatic uptake of elagolix; and thus, higher plasma elagolix concentrations). The frequency of this SLCO1B1 521 C/C genotype is generally less than 5% in most racial/ethnic groups. Women with this genotype are expected to have approximately 2-fold higher elagolix mean concentrations compared to women with normal transporter function (i.e., SLCO1B1 521T/T genotype). Adverse effects of elagolix have not been fully evaluated in subjects who have two reduced function alleles of the gene that encodes OATP1B1 (SLCO1B1 521T>C).
structure (smiles),measurement,value
"COc1cccc(-c2c(C)n(Cc3c(F)cccc3C(F)(F)F)c(=O)n(C[C@H](NCCCC(=O)O)c3ccccc3)c2=O)c1F [elagolix, 4-((R)-2-[5-(2-fluoro-3-methoxy-phenyl)-3-(2-fluoro-6-trifluoromethyl-benzyl)-4-methyl-2,6-dioxo-3,6-dihydro-2H-pyrimidin-1-yl]-1-phenyl-ethylamino)-butyric acid]","elagolix mean concentrations, SLCO1B1 521 C/C genotype compared to SLCO1B1 521T/T genotype",approximately 2 fold
